Data as given in patent US20190374509A1, “Methods of Using Metamizole for Treatment of Pyrexia in Equines” (Kindred Biosciences, Inc., priority 2018, published 2019).
Read-outs that look alike come from different tables or passages of the source.

Key:
horses [1] = type: in vivo; settings: 8 horses per group
Procedure: A study was conducted to evaluate the margin of safety of metamizole when administered intravenously to horses for 9 days at doses of 0 mg/kg (0×), 30 mg/kg (1×), 60 mg/kg (2×), and 90 mg/kg (3×) of body weight three times daily (TID), every 8 hours±30 min.
Treatment phase involved administration of the investigational drug or placebo. The investigational drug was a sterile injectable formulation of dipyrone (Zimeta™, Corden Pharma, Caponago, Italy) (500 mg/mL) in 100 mL glass bottles. The placebo was sterile injectable saline (Nova-Tech Inc, Grand Island, NE) (0.9% sodium chloride) in 500 mL plastic bottles labeled for veterinary use. Dipyrone treatment groups were 30 mg/kg (1×), 60 mg/kg (2×), and 90 mg/kg (3×). Placebo treatment group was saline administered at a volume to match the 3× dipyrone group (0×). The dose was calculated based on body weight and administered three times daily for nine consecutive days. Due to the large volume of injection at the higher dose groups, treatment was administered via indwelling intravenous (IV) catheters. Intravenous catheters were placed using standard techniques. Horses were sedated with xylazine (AnaSed® LA, VetOne, MWI, Boise, Id.) and the skin was desensitized with subcutaneous injection of lidocaine (VetOne, MWI, Boise, Id.). Intravenous catheters were replaced at the discretion of the study director and were maintained with heparinized saline flush prior to and following dose administration.
Randomization occurred on Study Day −1. […] .
All 32 horses were acclimated prior to study initiation and started the treatment phase healthy. During the study, numerous horses in all groups including placebo developed clinical signs of pneumonia likely due to exposure and incubation of respiratory pathogens prior to the start of the treatment phase. The mean time to development of pneumonia was 6.9 days with a range of 4.3 to 8.3 days. […] The other 31 horses completed the study. At the second gastroscopy examination, completed just prior to the treatment phase, one horse was noted to have purulent material draining from the guttural pouch. […]

horses [2] = assay: Pyrexia efficacy Study 1 (unmasked, single IV dose, rectal temperature); type: in vivo; settings: 30 mg/kg IV single dose; for Mean (± SD) temperature change from baseline: horses with rectal temperature ≥102.0° F.
Procedure: Study 1: The unmasked laboratory study was conducted at a clinical research organization in the United States. Institutional Animal Care and Use Committee (IACUC) approval was obtained prior to the conduct of the study. Horses one year of age or older were comingled by the Investigator in order to facilitate transmission of respiratory infections. Horses were monitored by the study staff for elevation of rectal temperature. All horses received treatment once the rectal temperature was ≥102.0° F. A single dose of dipyrone was administered intravenously (30 mg/kg IV). Rectal temperature was monitored 1, 2, 3, and 6 hours post-treatment administration.
In both studies horses were assessed daily to determine overall safety. Medications that could have impacted the temperature or the underlying cause of the disease were not permitted in either study; however, horses in both studies were eligible for rescue at the discretion of the Investigator. Following completion of the study, the Investigator treated the horses with standard of care for the type, and severity, of clinical signs. Statistical analysis was performed with the Wilcoxon rank sum test (SAS®, SAS Institute, Cary N.C., version 9.4).

Cc1c(N(C)CS(=O)(=O)O)c(=O)n(-c2ccccc2)n1C [dipyrone, [(2,3-dihydro-1,5-dimethyl-3-oxo-2-phenyl-1H-pyrazol-4-yl)methylamino] methanesulfonic acid]
Nasal Discharge, number of horses (horses [1]; 1X, 30 mg/kg IV every 8 hours): 1 | Nasal Discharge, number of horses (horses [1]; 2X, 60 mg/kg IV every 8 hours): 2 | Nasal Discharge, number of horses (horses [1]; 3X, 90 mg/kg IV every 8 hours): 1 | Mean (± SD) temperature change from baseline (horses [2]; Hour 1): −1.1 (± 0.5) ° F. | Mean (± SD) temperature change from baseline (horses [2]; Hour 2): −1.4 (± 1.0) ° F. | Mean (± SD) temperature change from baseline (horses [2]; Hour 3): −1.9 (± 1.0) ° F. | Mean (± SD) temperature change from baseline (horses [2]; Hour 6): −1.9 (± 1.1) ° F. | Fever reduction post-dose (horses [2]; Hours 1, 2, 3, 6): significantly reduced fever at all measured timepoints post-dose | Horses with reduced fever (>1° F.) (horses [2]; eight horses, Hour 6): 87.5% | Horses with return to normothermia (≥2° F.) (horses [2]; eight horses, Hour 6): 75%
